# Test results reported in US20220168392A1 (priority 2019, published 2022).
# Several values for one entry are separate records, joined by “and”; a condition that tells them apart may be missing. Identical values can stand only once. Square brackets hold non-standard residues; d marks the D form. * marks the point of attachment. 2Nal = N[C@@H](Cc1ccc2ccccc2c1)C(=O)O; Propionyl = CCC(=O)*; Sar = CNCC(=O)O
# Experiments:
# [1] = tested on: male BALB/c mice treated with carboplatin; experiment: Carboplatin induced thrombocytopenia, anemia, mortality and brain microangiopathic events in mice; format: in vivo, mouse
# Description: Materials and Methods: Increasing doses of carboplatin (i.e., 60, 70, or 80 mg/kg, i.p.) were administered on 2 consecutive days (Day 1 and Day 0) to male BALB/c mice (N=3 per group). Approximately 1 hour after carboplatin treatment on Day 0, sets of mice were treated with vehicle or RWJ-800088 (100 μg/kg, i.v.).
# On Day 15, surviving mice were euthanized and blood samples were collected for the assessment of platelet and red blood cell (RBC) parameters. The brains of the mice were also isolated and preserved in 10% buffered formalin for immunohistochemical staining using anti-fibrinogen antibodies. Control mice were processed in a similar manner.
# [2] = tested on: CD2F1 male mice exposed to TBI; experiment: 30-day survival after total body irradiation (TBI) in CD2F1 mice; format: in vivo, mouse; details: for Survival Differential (Treatment-Vehicle) / Survival treatment: CD2F1 M
# [3] = carboplatin 70 mg/kg, RWJ-800088 100 μg/kg i.v., Day 15
# [4] = 9.25 Gy, 0.3 mg/kg single dose, Post 4 hr
# [5] = 9.25 Gy, 0.3 mg/kg single dose, Pre −24 hr
# [6] = 9.3 Gy, 0.3 mg/kg single dose, Post 24 hr
# [7] = 9.3 Gy, 1 mg/kg single dose, Post 24 hr
# [8] = 9.35 Gy, 0.1 mg/kg single dose, Post 24 hr
# [9] = 9.35 Gy, 0.3 mg/kg single dose, Post 24 hr, listed as TPOm, 0.3 mg/kg
# [10] = 9.35 Gy, 0.3 mg/kg, 2 doses 12 hours apart, Post, first dose 24 hr
# [11] = 9.35 Gy, 0.3 mg/kg, 3 doses 8 hours apart, Post, first dose 24 hr
# [12] = 9.35 Gy, 1 mg/kg single dose, Post 24 hr
# [13] = 9.35 Gy, 2 mg/kg single dose, Post 24 hr
# [14] = 9.35 Gy, 3 mg/kg single dose, Post 24 hr
# [15] = 9.75 Gy, 0.1 mg/kg single dose, Post 4 hr
# [16] = 9.75 Gy, 0.1 mg/kg single dose, Pre −24 hr
# [17] = 9.75 Gy, 0.3 mg/kg single dose, Post 4 hr
# [18] = 9.75 Gy, 0.3 mg/kg single dose, Pre −2 hr
# [19] = 9.75 Gy, 0.3 mg/kg single dose, Pre −12 hr
# [20] = 9.75 Gy, 0.3 mg/kg single dose, Pre −24 hr, listed as TPOm, 0.3 mg/kg
# [21] = 9.75 Gy, 1 mg/kg single dose, Post 4 hr, listed as TPOm, 1 mg/kg
# [22] = 9.75 Gy, 1 mg/kg single dose, Post 8 hr
# [23] = 9.75 Gy, 1 mg/kg single dose, Post 12 hr
# [24] = 9.75 Gy, 1 mg/kg single dose, Pre −24 hr
# [25] = 9.75 Gy, 2 mg/kg single dose, Pre −24 hr
# [26] = 9.75 Gy, 3 mg/kg single dose, Post 4 hr
# [27] = 9.75 Gy, 3 mg/kg single dose, Pre −24 hr
# [28] = 10.5 Gy, 0.1 mg/kg single dose, Pre −24 hr
# [29] = 10.5 Gy, 0.3 mg/kg single dose, Pre −24 hr
substance,measurement,setting,value
methoxypolyethyleneglycol20000-propionyl-L-Isoleucyl-L-Glutamyl-Glycyl-L-Prolyl-L-Threonyl-L-Leucyl-L-Arginyl-L-Glutaminyl-L-2-Naphthylalanyl-L-Leucyl-L-Alanyl-L-Alanyl-L-Arginyl-Sarcosyl-Ne-(methoxypolyethyleneglycol20000-propionyl-L-Isoleucyl-L-Glutamyl-Glycyl-L-Prolyl-L-Threonyl-L-Leucyl-L-Arginyl-L-Glutaminyl-L-2-Naphthylalanyl-L-Leucyl-L-Alanyl-L-Alanyl-L-Arginyl-Sarcosyl-)-Lysinamide ({mPEG 20 kDa-Propionyl}-IEGPTLRQ[2Nal]LAAR[Sar]K-NH2; also: dimer: second identical mPEG-propionyl chain on Lys Nε of C-terminal lysinamide) [RWJ-800088],Effects,"[1]; Mice, carboplatin chemotherapy, whole wrapped cell: Protection against thrombocytopenia, anemia and vascular hemorrhage in the brain",Protection against
same,fibrinogen staining of brain sections (immunohistochemistry),[1]; [3],appeared normal with the intensity of fibrinogen staining similar to vessels in the brains of control mice
same,signs of hemorrhage or edema in brain,[1]; [3],none of the brains isolated from mice co-treated with RWJ-800088 exhibited signs of hemorrhage or edema
same,platelet and RBC counts on Day 15,"[1]; carboplatin 60, 70 or 80 mg/kg i.p. on 2 consecutive days, RWJ-800088 100 μg/kg i.v. ~1 hour after carboplatin on Day 0",prevented the observed decreases in platelet and RBC counts
same,mortality / euthanization,"[1]; carboplatin 60-80 mg/kg i.p. x2 days, RWJ-800088 100 μg/kg i.v.",none of the mice treated with RWJ-800088 died or required euthanization
same,dose dependence of survival,"[2]; CD2F1, 24 hours post-TBI (9.3 Gy), doses 0.1 to 3 mg/kg (FIG. 12A)",increase in survival from 0.1 to 1 mg/kg and then a slight reduction in the survival benefit at 2 and 3 mg/kg
same,Survival Differential (Treatment-Vehicle),[2]; [4],53%
same,Survival treatment,[2]; [4],88%
same,Survival Differential (Treatment-Vehicle),[2]; [5],41%
same,Survival treatment,[2]; [5],83%
same,Survival Differential (Treatment-Vehicle),[2]; [6],42%
same,Survival treatment,[2]; [6],71%
same,Survival Differential (Treatment-Vehicle),[2]; [7],50%
same,Survival treatment,[2]; [7],79%
same,Survival Differential (Treatment-Vehicle),[2]; [8],25%
same,Survival treatment,[2]; [8],58%
same,Survival treatment,"[2]; 9.35 Gy, 0.3 mg/kg single dose, Post 24 hr, 0.3 mg/kg",71%
same,Survival Differential (Treatment-Vehicle),[2]; [9],25% and 17%
same,Survival treatment,[2]; [9],58% and 71%
same,Survival Differential (Treatment-Vehicle),[2]; [10],21%
same,Survival treatment,[2]; [10],54%
same,Survival Differential (Treatment-Vehicle),[2]; [11],8%
same,Survival treatment,[2]; [11],50%
same,Survival Differential (Treatment-Vehicle),[2]; [12],29%
same,Survival treatment,[2]; [12],63%
same,Survival Differential (Treatment-Vehicle),[2]; [13],17%
same,Survival treatment,[2]; [13],50%
same,Survival Differential (Treatment-Vehicle),[2]; [14],13%
same,Survival treatment,[2]; [14],46%
same,Survival Differential (Treatment-Vehicle),[2]; [15],21%
same,Survival treatment,[2]; [15],42%
same,Survival Differential (Treatment-Vehicle),[2]; [16],92%
same,Survival treatment,[2]; [16],92%
same,Survival Differential (Treatment-Vehicle),[2]; [17],42%
same,Survival treatment,[2]; [17],63%
same,Survival Differential (Treatment-Vehicle),[2]; [18],58%
same,Survival treatment,[2]; [18],92%
same,Survival Differential (Treatment-Vehicle),[2]; [19],96%
same,Survival treatment,[2]; [19],100%
same,Survival Differential (Treatment-Vehicle),[2]; [20],92% and 96%
same,Survival treatment,[2]; [20],92% and 100%
same,Survival Differential (Treatment-Vehicle),[2]; [21],67% and 60%
same,Survival treatment,[2]; [21],88% and 80%
same,Survival Differential (Treatment-Vehicle),[2]; [22],80%
same,Survival treatment,[2]; [22],90%
same,Survival Differential (Treatment-Vehicle),[2]; [23],50%
same,Survival treatment,[2]; [23],70%
same,Survival Differential (Treatment-Vehicle),[2]; [24],92%
same,Survival treatment,[2]; [24],92%
same,Survival Differential (Treatment-Vehicle),[2]; [25],96%
same,Survival treatment,[2]; [25],96%
same,Survival Differential (Treatment-Vehicle),[2]; [26],33%
same,Survival treatment,[2]; [26],54%
same,Survival Differential (Treatment-Vehicle),[2]; [27],100%
same,Survival treatment,[2]; [27],100%
same,Survival Differential (Treatment-Vehicle),[2]; [28],90%
same,Survival treatment,[2]; [28],90%
same,Survival Differential (Treatment-Vehicle),[2]; [29],95%
same,Survival treatment,[2]; [29],95%
